Our source for the EC50 values is patent publication US20230114728A1 (Venatorx Pharmaceuticals, Inc., priority 2019, published 2023).

This experiment deals with T1, A. baumannii PBP2 (Acinetobacter baumannii, UniProt D0C8Z9).
T1 construct: made in house
T1 sequence (D0C8Z9 1-672): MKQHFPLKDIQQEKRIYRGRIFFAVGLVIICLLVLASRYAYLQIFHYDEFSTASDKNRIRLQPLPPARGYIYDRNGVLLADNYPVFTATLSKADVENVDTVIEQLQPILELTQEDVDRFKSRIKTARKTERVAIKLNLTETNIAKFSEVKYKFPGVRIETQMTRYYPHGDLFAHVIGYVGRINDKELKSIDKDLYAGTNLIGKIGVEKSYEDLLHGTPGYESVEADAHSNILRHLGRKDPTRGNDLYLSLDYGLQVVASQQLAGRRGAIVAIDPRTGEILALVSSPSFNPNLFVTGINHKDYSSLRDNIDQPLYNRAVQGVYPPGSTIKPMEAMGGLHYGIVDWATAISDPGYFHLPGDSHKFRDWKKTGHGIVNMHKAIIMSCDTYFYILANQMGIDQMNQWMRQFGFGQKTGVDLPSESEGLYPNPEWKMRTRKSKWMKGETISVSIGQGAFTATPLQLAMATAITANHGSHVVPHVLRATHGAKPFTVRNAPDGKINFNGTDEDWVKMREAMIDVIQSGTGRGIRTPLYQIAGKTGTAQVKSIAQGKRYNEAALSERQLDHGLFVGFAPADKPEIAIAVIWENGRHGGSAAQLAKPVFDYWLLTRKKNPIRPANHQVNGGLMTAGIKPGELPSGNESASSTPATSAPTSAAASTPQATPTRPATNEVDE
Briefly: Bocillin-FL fluorescence polarization competition binding assay, A. baumannii PBP2. Particulars: fluorescence polarization competition binding assay using Bocillin-FL; read-out: A. baumannii PBP2 Potency. An outline of the steps:
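A. baumannii PBP2 (2.5 μM) and PBP3 (0.2 μM) were run in 25 mM Tris pH 8.0 buffer with Tween 20; E. coli PBP3 (1.5 μM) and N. gonorrhoeae PBP2 ([…]) in 50 mM Hepes pH 8.0 buffer.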

Regarding `CCN1CCN(C(=O)N[C@@H](C(=O)N[C@H]2Cc3cccc(C(=O)O)c3OB2O)c2c(O)cc(O)cc2F)C(=O)C1=O` (single isomer, unassigned) [Example 182], the EC50 is more than 100 µM.

On to `CS(=O)(=O)N1CCN(C(=O)N[C@@H](C(=O)N[C@H]2Cc3ccc(F)c(C(=O)O)c3OB2O)c2cc(F)c(O)c(O)c2Cl)C1=O` (single isomer, unassigned) [Example 189], for which the EC50 was more than 100 µM.

With `O=C(NCCCN1CCN(C(=O)NC(C(=O)N[C@H]2Cc3ccc(F)c(C(=O)O)c3OB2O)c2ncc(O)cc2F)C(=O)C1=O)c1ccc(O)c(O)c1Cl` (stereo partly drawn) [Example 3, (3R)-3-(2-(4-(3-(2-chloro-3,4-dihydroxybenzamido)propyl)-2,3-dioxopiperazine-1-carboxamido)-2-(3-fluoro-5-hydroxypyridin-2-yl)acetamido)-7-fluoro-2-hydroxy-3,4-dihydro-2H-benzo[e][1,2]oxaborinine-8-carboxylic acid], the EC50 was more than 100 µM.

Regarding `NCCCN1CCN(C(=O)N[C@@H](C(=O)N[C@H]2Cc3cc(Cl)c(F)c(C(=O)O)c3OB2O)c2c(F)cc(O)c(O)c2Cl)C(=O)C1=O` [Example 190, (R)-3-((R)-2-(4-(3-aminopropyl)-2,3-dioxopiperazine-1-carboxamido)-2-(2-chloro-6-fluoro-3,4-dihydroxyphenyl)acetamido)-6-chloro-7-fluoro-2-hydroxy-3,4-dihydro-2H-benzo[e][1,2]oxaborinine-8-carboxylic acid], the EC50 was more than 100 µM.

For the molecule `CCN1CCN(C(=O)N[C@@H](C(=O)N[C@H]2Cc3cc(Cl)c(F)c(C(=O)O)c3OB2O)c2c(F)cc(O)c(O)c2Cl)C(=O)C1=O` [Example 191, (R)-6-chloro-3-((R)-2-(2-chloro-6-fluoro-3,4-dihydroxyphenyl)-2-(4-ethyl-2,3-dioxopiperazine-1-carboxamido)acetamido)-7-fluoro-2-hydroxy-3,4-dihydro-2H-benzo[e][1,2]oxaborinine-8-carboxylic acid], the EC50 lay within 30 to 100 µM.
